Data as given in US20120095055A1, “HEXAHYDROCYCLOPENTYL[f]INDAZOLE 5-HYDROXYMETHYL ETHANOLS AND DERIVATIVES THEREOF AS SELECTIVE GLUCOCORTICOID RECEPTOR MODULATORS” (Merck Sharp & Dohme, Corp., priority 2009, published 2012).

Biological target: T1, human GR (Homo sapiens, UniProt P04150)
T1 construct: naturally expresses the human GR; endogenous in cells
T1 sequence (P04150 1-777): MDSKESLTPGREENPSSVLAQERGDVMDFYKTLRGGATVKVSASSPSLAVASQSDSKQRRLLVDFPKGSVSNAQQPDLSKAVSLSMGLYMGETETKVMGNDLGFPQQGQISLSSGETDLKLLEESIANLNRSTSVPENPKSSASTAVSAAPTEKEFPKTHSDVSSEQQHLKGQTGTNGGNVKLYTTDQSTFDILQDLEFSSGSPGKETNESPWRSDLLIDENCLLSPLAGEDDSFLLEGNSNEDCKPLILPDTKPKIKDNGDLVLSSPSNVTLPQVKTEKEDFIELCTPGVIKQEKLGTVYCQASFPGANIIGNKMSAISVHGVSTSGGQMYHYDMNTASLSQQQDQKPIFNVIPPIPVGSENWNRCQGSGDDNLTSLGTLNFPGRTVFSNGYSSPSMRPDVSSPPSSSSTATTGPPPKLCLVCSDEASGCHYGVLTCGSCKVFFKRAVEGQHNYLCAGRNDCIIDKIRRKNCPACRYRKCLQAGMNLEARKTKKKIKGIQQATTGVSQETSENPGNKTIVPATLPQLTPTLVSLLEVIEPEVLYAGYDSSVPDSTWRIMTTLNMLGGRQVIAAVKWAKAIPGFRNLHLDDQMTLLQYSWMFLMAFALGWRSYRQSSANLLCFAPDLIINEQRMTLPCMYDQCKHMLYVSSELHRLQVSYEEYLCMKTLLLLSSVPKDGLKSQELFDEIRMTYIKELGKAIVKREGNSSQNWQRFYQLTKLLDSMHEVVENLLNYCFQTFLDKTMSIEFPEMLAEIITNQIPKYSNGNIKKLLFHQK
Experiment: Transrepression Assay (GITAR), TNFα-β-lactamase reporter in U937 cells
Format: cell-based
Conditions: for Emax: U-937, activity repressed by 100 nM dexamethasone set as 100%; for EC50: inflection point (IP), TNFα promoter β-lactamase reporter, PMA/LPS; for Transrepression U937 Cells GITAR Emax (%): activity repressed by 100 nM dexamethasone set as 100%
Description: This assay assesses the ability of test compounds to control transcription from the TNFα-β-lactamase reporter gene in U937 cells, a human myelomonocytic leukemia cell line that naturally expresses the human GR. The assay measures compound dependent-repression of the TNFa promoter linked to a reporter gene.
The human U937 cells that had been stablely transfected with the TNF-α promoter driving β-lactamase are used for this assay. U937 cells contain an endogenous glucocorticoid receptor (GR). Cells are maintained in RPMI 1640 Growth medium (Gibco Cat#11875-093) containing 25 mM HEPES, 10% FBS, 2 mM L-Glutamine, 1 mM Sodium pyruvate, 25 μg/ml Gentamicin (Gibco Cat#15710-064), 1:1000 2-Mercaptoethanol (Gibco Cat#21985-023) and 0.8 mg/ml G418 (Gibco Cat#10131-027). The density of the cells in the flask needs to be about 1×106-3×10^6/ml at the time of harvest. Usually, the cells are split to 1.2˜1.4×10^5/ml (1:10) 3 days prior to the assay. 50,000 cells/well are plated in 96 well black-walled plates the day of assay. Test compounds are added 10 μL/well, and cells are incubated at 37° C. for 30˜45 min. For assaying compounds, first dilute 1:10 in DMSO to make 1 mM, then further dilute 1:100 in medium to make 10× stock prior to adding to the cells. Add 50 ng/ml PMA (Sigma, cat# P8139) 10 μL/well to a final concentration 5 ng/ml, and 1 μg/ml LPS (Sigma, cat# L4130) 10 μL/well to a final concentration 100 ng/ml. Incubate cells at 37° C. overnight for ˜18 hr. PMA is stored frozen as 100 μg/ml stock in DMSO. Dilute 1:10 in DMSO for a working stock of 10 μg/ml and store at −20 C. For assaying, dilute the 10 μg/ml working stock 1:200 in medium to make a 10× solution (50 ng/ml). Store frozen LPS at 1 mg/ml in PBS, dilute 1:1000 in medium to make 10× (1 μg/ml) for the assay. Add 6× loading buffer (CCF2-AM) 20 μL/well, and incubate at room temperature for 70˜90 min. […] The activity repressed by 100 nM dexamethasone alone is set as 100% activity.

Row | SMILES | Emax | EC50 | Transrepression U937 Cells GITAR Emax (%)
1 | C[C@]12Cc3cnn(-c4ccc(F)cc4)c3C=C1CC[C@@]2(CO)CC(O)C1CC1 (single isomer, unassigned) [Example 20a, 1-cyclopropyl-2-[(4αS)-1-(4-fluorophenyl)-5-(hydroxymethyl)-4α-methyl-1,4,4α,5,6,7-hexahydrocyclopenta[f]indazol-5-yl]ethanol] | 79.9% | 133 nM | –
2 | Cc1ccc(C(O)C[C@]2(CO)CCC3=Cc4c(cnn4-c4ccc(F)cc4)C[C@@]32C)nc1 (stereo partly drawn) [Example 16, 2-[(4αS,5R)-1-(4-fluorophenyl)-5-(hydroxymethyl)-4α-methyl-1,4,4α,5,6,7-hexahydrocyclopenta[f]indazol-5-yl]-1-(5-methylpyridin-2-yl)ethanol] | 85.4% | 21.4 nM | –
3 | C[C@]12Cc3cnn(-c4ccc(F)cc4)c3C=C1CC[C@@]2(CO)CC(O)c1ccc(F)cn1 (single isomer, unassigned) [Example 22b] | – | 14.1 nM | 90.6%
4 | CC(O)(C[C@]1(CO)CCC2=Cc3c(cnn3-c3ccc(F)cc3)C[C@@]21C)c1cccnc1 (single isomer, unassigned) [Example 25a] | 61.3% | 293 nM | –
5 | C[C@]12Cc3cnn(-c4ccc(F)cc4)c3C=C1CC[C@@]2(CO)CC(O)c1ccccc1 (single isomer, unassigned) [Example 13b] | – | 18 nM | 96.4%
6 | C[C@]12Cc3cnn(-c4ccc(F)cc4)c3C=C1CC[C@@]2(CO)CC(O)c1cccc(C(F)(F)F)c1 (single isomer, unassigned) [Example 7a] | 95.3% | 87.6 nM | –
7 | C[C@]12Cc3cnn(-c4ccc(F)cc4)c3C=C1CC[C@@]2(CO)CC(O)c1ccccn1 (single isomer, unassigned) [Example 1a] | 93% | 5.6 nM | –
8 | C[C@]12Cc3cnn(-c4cccc(F)c4)c3C=C1CC[C@@]2(CO)CC(O)c1ccccn1 (single isomer, unassigned) [Example 19b] | – | 73.8 nM | 86.7%
9 | C[C@]12Cc3cnn(-c4ccc(F)cc4)c3C=C1CC[C@@]2(CO)CC(O)c1cc(F)cc(Cl)c1 (single isomer, unassigned) [Example 6b] | – | 68.8 nM | 98.3%
10 | CC(C)C(O)C[C@]1(CO)CCC2=Cc3c(cnn3-c3ccc(F)cc3)C[C@@]21C (single isomer, unassigned) [Example 14b] | – | 249 nM | 82.3%
11 | C[C@]12Cc3cnn(-c4ccc(F)cc4)c3C=C1CC[C@@]2(CO)CC(O)C(F)(F)F (single isomer, unassigned) [Example 28b] | – | 90.9 nM | 80.2%
12 | COc1cccnc1C(O)C[C@]1(CO)CCC2=Cc3c(cnn3-c3ccc(F)cc3)C[C@@]21C (single isomer, unassigned) [Example 21a] | 85.4% | 101 nM | –
13 | C[C@]12Cc3cnn(-c4ccc(F)cc4)c3C=C1CC[C@@]2(CO)CC(O)c1cc(F)cc(F)c1 (stereo partly drawn) [Example 9, 1-(3,5-difluorophenyl)-2-[(4αS,5R)-1-(4-fluorophenyl)-5-(hydroxymethyl)-4α-methyl-1,4,4α,5,6,7-hexahydrocyclopenta[f]indazol-5-yl]ethanol] | 102% | 0.6 nM | –
14 | C[C@]12Cc3cnn(-c4ccc(F)cc4)c3C=C1CC[C@@]2(CO)CC1OC(=O)c2ccccc21 (single isomer, unassigned) [Example 12a] | 78.8% | 93.1 nM | –
15 | Cc1ccc(C(O)C[C@]2(CO)CCC3=Cc4c(cnn4-c4ccc(F)cc4)C[C@@]32C)cc1 (single isomer, unassigned) [Example 2b] | 94.4% | 235 nM | –
16 | CC(O)(C[C@]1(CO)CCC2=Cc3c(cnn3-c3ccc(F)cc3)C[C@@]21C)c1cccnc1 (single isomer, unassigned) [Example 25b] | – | 186 nM | 69.8%
17 | COc1cccnc1C(O)C[C@]1(CO)CCC2=Cc3c(cnn3-c3cccc(F)c3)C[C@@]21C (single isomer, unassigned) [Example 26a] | – | 80.8 nM | 82.1%
